The values that follow come from paper PMC4381330, “Identification of a novel selective agonist of PPARγ with no promotion of adipogenesis and less inhibition of osteoblastogenesis” (Scientific Reports, 2015).

The subject of one assay is 3T3-L1 preadipocytes. As to the kind of experiment: Adipogenic differentiation of 3T3-L1 preadipocytes (Oil red O, triglyceride content). It is filed as cell-based, mouse. The procedure:
(§1) 3T3-L1 preadipocytes were grown to confluency in DMEM containing 10% CS. At 2 days post-confluency, the cells were stimulated with differentiation medium (DMEM containing 10% FBS, 10 μg/mL insulin, 1 μM dexamethasone, and 0.5 mM IBMX) for 48 h. Then, the cells were exposed in post-differentiation-maintaining medium (DMEM containing 10% FBS and 10 μg/mL insulin) for a further 48 h, which was replaced with expansion medium (DMEM containing 10% FBS) every 2 days after then. Compounds were added to the post-differentiation and expansion medium. At day 4, the cells were harvested for RNA preparation. At Day 8, the cells were fixed with 10% formaldehyde and stained with Oil red O solution. After washing with water, photos were taken. Solubilized dye was quantified at 550 nm. In addition, total triglyceride of the cells was measured by a total TG measurement kit (Applygene, China). Experiments were performed at least three times.

Assay [1] has as its target T1, CDK5-mediated phosphorylation of PPARγ at Ser273 (Homo sapiens, UniProt P37231).
T1 construct: 0.5 μg purified PPARγ-LBD protein was incubated with 50 ng CDK5/p25 kinase (Millipore); Millipore (CDK5/p25 only)
T1 sequence (P37231 238-503 limits assumed): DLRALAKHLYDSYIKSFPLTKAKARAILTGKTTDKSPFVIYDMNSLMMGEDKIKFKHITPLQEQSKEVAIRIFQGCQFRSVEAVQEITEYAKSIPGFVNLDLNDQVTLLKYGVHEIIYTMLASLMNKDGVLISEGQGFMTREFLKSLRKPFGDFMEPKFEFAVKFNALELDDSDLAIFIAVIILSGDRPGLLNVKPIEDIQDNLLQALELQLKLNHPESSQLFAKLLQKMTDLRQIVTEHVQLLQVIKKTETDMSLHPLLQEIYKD
In words: In vitro CDK5 assay of the PPARγ LBD (western blot). Format: biochemical. To be noted: to a similar extent as rosiglitazone. The protocol: The in vitro CDK assay was performed as described previously. Briefly, 0.5 μg purified PPARγ-LBD protein was incubated with 50 ng CDK5/p25 kinase (Millipore) in CDK assay buffer (Cell Signaling Technology, Danvers, MA, USA), followed by addition of 50 μM ATP and incubation for 30 min at room temperature. PPARγ-LBD was pre-incubated with test compounds for 30 min before performing the reaction. Phosphorylation of PPARγ Ser273 was analyzed by western blotting with an anti-CDK substrate antibody to detect phosphor-serine in the consensus motif for CDK substrate proteins (K/R-S-P-K/R) (Cell Signaling Technology).

The test system of assay [2] is PPARγ target genes in differentiating 3T3-L1 cells. As to the kind of experiment: Expression of adipogenesis-related and PPARγ-responsive genes in differentiating 3T3-L1 adipocytes (qPCR). Format: cell-based, mouse. The procedure:
as §1
Total RNA was extracted using TRIzol reagent (Invitrogen). First-strand cDNA was synthesized from the total RNA using a reverse transcriptional kit (TransGen). Quantitative PCR with SYBR Green (Roche Diagnostics, Lewes, UK) was performed on a Stratagene MX3000P real-time PCR system (Agilent). Melting curves were obtained, and the specificity of PCR products was checked on agarose gels. Relative mRNA expression was determined by the ΔΔCt method and normalized to GAPDH mRNA levels.
For orientation: Real-time PCR tracks product formation cycle by cycle.

The next assay concerns the target T2, PPARγ Y473A (Homo sapiens, UniProt P37231, Y501A).
T2 construct: expressed in transfected cells; host or cells: HEK293T
T2 sequence (P37231 172-476 isoform P37231-2 Y473A): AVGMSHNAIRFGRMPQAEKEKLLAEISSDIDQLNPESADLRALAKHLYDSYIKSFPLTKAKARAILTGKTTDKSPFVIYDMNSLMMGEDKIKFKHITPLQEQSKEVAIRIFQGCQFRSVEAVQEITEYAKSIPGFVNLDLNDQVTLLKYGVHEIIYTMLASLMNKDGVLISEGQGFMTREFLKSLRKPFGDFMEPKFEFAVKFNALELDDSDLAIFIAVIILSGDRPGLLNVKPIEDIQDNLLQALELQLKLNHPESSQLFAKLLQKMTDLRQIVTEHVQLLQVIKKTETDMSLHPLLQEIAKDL
In words: Y473A assay (PPARγ reporter gene assay with Tyr473 of pBIND-PPARγ-LBD mutated into alanine). It is filed as cell-based. The protocol: All chemicals were purchased from Sigma-Aldrich (St. Louis, MO, USA). All medium and serum were obtained from Gibco (Invitrogen). The wild-type gene of human PPARγ-LBD (amino acids 172–476) was obtained by PCR and cloned into pBIND vector (Promega). Mutations in pBIND-PPARγ-LBD were created by site-directed mutagenesis using the Fast Mutagenesis System (TransGen Biotech, Beijing, China).
The determination of nuclear receptor activation was performed as previously. Briefly, HEK293T cells were transfected with GAL4-pGL4-luc reporter plasmid and pBIND-PPARγ-LBD expression plasmid using Lipofectamine 2000 (Invitrogen) for 6 h before treatment with compounds for 20–24 h. Activity was determined by the Luciferase Assay System (Promega).
Supplementary Figure 1: Workflow of virtual screening and the procedure used for selecting hits whose bioactivity was experimentally tested. We developed a virtual screening workflow by Discovery Studio 4.0 software to identify selective agonists of PPARγ. The key steps of this workflow is the two pharmacophore models. One is the antipharmacophore model which excludes compounds whose structure are similar to known full agonists, the other one is the pharmacophore model which identifies selective agonists. Biological assays were performed after virtual steps to further screen leads. […]

pEC50: −log10 of the molar value.

As for “2-[2-(1, 2-dimethyl-1H-indol-3-yl)-2-oxo-acetylamino]-benzamide [Compound F12016]”, the “intracellular triglyceride (TG) content” value in the assay with 3T3-L1 preadipocytes (6 days of stimulation) is “significantly reduced TG accumulation compared with rosiglitazone”. Besides, the “TG content of differentiating adipocytes at 30 μM compared with 10 μM” value in the assay on 3T3-L1 preadipocytes (F12016 30 μM vs 10 μM) is “significantly less than that of 10 μM”. Besides, in the assay with 3T3-L1 preadipocytes (RGZ 0.1, 1, 10 μM, F12016 1, 10, 30 μM), the “lipid accumulation / intracellular lipid droplets (Oil red O staining)” value is “significantly reduced potency to form intracellular lipid droplets”. Besides, the “lipid droplet size, F12016 vs rosiglitazone” value with 3T3-L1 preadipocytes (supplementary Figure 2) was “no significant difference”. Also, in assay [1], the “CDK5-mediated phosphorylation of PPARγ” value is “effectively blocked CDK5-mediated phosphorylation of PPARγ”. Moreover, in assay [2], the “AdipQ mRNA expression” value is on record as “increased AdipQ mRNA expression”, the “mRNA levels of 11β-HSD1” value is listed as “similarly decreased the mRNA levels” and the “transcription of Pdk4” value was “decreased transcription”. The “expression of fatty acid synthase (Fasn)” value in assay [2] (both compounds to a similar extent) is listed as “upregulated expression”. Also, in assay [2] (compared with rosiglitazone), the “expression of adipogenesis-related genes (CEBP/α, PEPCK, FABP4, CD36, Gyk, Elvol3, Cox7a1)” value is “induced much less expression” and the “induction of lipoprotein lipase (LPL)” value is given as “less than that induced by rosiglitazone”. The negative logarithm of the EC50 (pEC50) – broadly, the negative decadic logarithm of the EC50, by convention in mol/L – at PPARγ Y473A is 5.28. For the same substance, the “PPARγ Y473A (RGZ %)” value at PPARγ Y473A (activation relative to rosiglitazone (RGZ)) was 29.12%.
